{"source": "patent US8785147B2", "about": "“L-threonine analysis method and L-threonine dehydrogenase” (Toyama Prefecture, priority 2010, dated 2014)", "key": {"[1]": {"tested_on": "TDH derived from Cupriavidus necator NBRC 102504 (SEQ ID NO: 1) (CnTDH)", "assay": "Substrate specificity of TDH, standard assay", "format": "biochemical", "procedure": "L-threonine oxidation activity was determined by measuring coenzyme NAD^+ reduction at 30° C. and 340 nm. The reaction composition consisted of a total volume of 1 mL and contained L-threonine (final concentration 10 mM), NAD^+ (final concentration 2.5 mM), and glycine-KCl—KOH buffer (100 mM, pH 10.0). The measurement of activity began with the addition of the enzyme. One unit (U) of enzymatic activity was defined as the amount of enzyme producing 1 μmol of NADH per minute under standard conditions.\nTDH was examined using substrates in the form of various L-amino acids, amino alcohols, and alcohols. […]"}, "[2]": {"target": "PfTDH: TDH from Pyrococcus furiosus (Pyrococcus furiosus, UniProt Q8U259)", "sequence (Q8U259 whole entry)": "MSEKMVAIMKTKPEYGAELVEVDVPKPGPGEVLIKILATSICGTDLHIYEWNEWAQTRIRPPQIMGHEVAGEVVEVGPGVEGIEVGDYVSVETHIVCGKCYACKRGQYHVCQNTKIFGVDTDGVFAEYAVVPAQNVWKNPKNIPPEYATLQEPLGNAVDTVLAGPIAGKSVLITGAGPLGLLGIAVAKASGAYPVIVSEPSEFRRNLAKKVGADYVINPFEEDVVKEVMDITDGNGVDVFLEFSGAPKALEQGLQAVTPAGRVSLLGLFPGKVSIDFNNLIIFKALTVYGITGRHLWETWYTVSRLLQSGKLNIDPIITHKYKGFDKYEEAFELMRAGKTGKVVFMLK", "conditions": "cited from earlier work"}, "[3]": {"tested_on": "CyTDH: TDH from Cytophaga sp. KUC-1", "conditions": "cited from earlier work"}, "[4]": {"tested_on": "CsTDH: TDH from Clostridium sticklandii", "conditions": "cited from earlier work"}, "[5]": {"tested_on": "Purified TDH derived from Cupriavidus necator NBRC 102504", "assay": "Effect of metal ions and inhibitors on TDH activity (residual activity)", "format": "biochemical", "conditions": "for Relative activity (residual TDH activity): metal ions final concentration 1 mM, relative to enzyme without additives"}, "[6]": {"conditions": "substrate concentration 10 mM, standard assay conditions, L-threonine = 100"}, "[7]": {"conditions": "substrate specificity, L-threonine = 100"}, "[8]": {"conditions": "inhibitors final concentration 10 mM, 30° C. for 1 hour, None = 100"}, "[9]": {"conditions": "inhibitors final concentration 10 mM, 30° C. for 1 hour"}}, "note": "Where two headings read alike, the source gives them in different places."}
{"smiles": "CCC(N)CO", "note": "(racemic) [DL-2-amino1-butanol]", "values": [{"measurement": "Relative activity (%) CnTDH", "setting": "[1]; [6]", "value": 0, "unit": "%"}]}
{"smiles": "C[C@@H](O)[C@H](N)C(=O)O", "note": "(racemic) [DL-threonine]", "values": [{"measurement": "Relative activity (%) CnTDH", "setting": "[1]; [6]", "value": 64, "unit": "%"}]}
{"smiles": "CCC(O)CO", "note": "(stereo not shown) [1,2-Butanediol]", "values": [{"measurement": "Relative activity (%) PfTDH", "setting": "[2]; [7]", "value": 52, "unit": "%"}, {"measurement": "Relative activity (%) CnTDH", "setting": "[1]; [6]", "value": 0, "unit": "%"}]}
{"smiles": "CC(O)CCO", "note": "(stereo not shown) [1,3-Butanediol]", "values": [{"measurement": "Relative activity (%) PfTDH", "setting": "[2]; [7]", "value": 0, "unit": "%"}, {"measurement": "Relative activity (%) CnTDH", "setting": "[1]; [6]", "value": 0, "unit": "%"}]}
{"smiles": "CCCCO", "note": "[1-Butanol]", "values": [{"measurement": "Relative activity (%) PfTDH", "setting": "[2]", "value": 0, "unit": "%"}, {"measurement": "Relative activity (%) CnTDH", "setting": "[1]; [6]", "value": 0, "unit": "%"}]}
{"smiles": "CC(O)C(C)O", "note": "(stereo not shown) [2,3-Butanediol]", "values": [{"measurement": "Relative activity (%) PfTDH", "setting": "[2]; [7]", "value": 94, "unit": "%"}, {"measurement": "Relative activity (%) CnTDH", "setting": "[1]; [6]", "value": 0, "unit": "%"}]}
{"smiles": "CCC(C)O", "note": "(stereo not shown) [2-Butanol]", "values": [{"measurement": "Relative activity (%) PfTDH", "setting": "[2]", "value": 0, "unit": "%"}, {"measurement": "Relative activity (%) CyTDH", "setting": "[3]; [7]", "value": 0, "unit": "%"}, {"measurement": "Relative activity (%) CnTDH", "setting": "[1]; [6]", "value": 0, "unit": "%"}]}
{"smiles": "CC(=O)C(C)O", "note": "(stereo not shown) [Acetoin]", "values": [{"measurement": "Relative activity (%) PfTDH", "setting": "[2]; [7]", "value": 38, "unit": "%"}, {"measurement": "Relative activity (%) CsTDH", "setting": "[4]; [7]", "value": 0, "unit": "%"}, {"measurement": "Relative activity (%) CnTDH", "setting": "[1]; [6]", "value": 0, "unit": "%"}]}
{"smiles": "O=[N+]([O-])[O-].[Ag+]", "note": "[AgNO3]", "values": [{"measurement": "Relative activity (residual TDH activity)", "setting": "[5]; 30° C. for 1 hour", "value": 100, "unit": "%"}]}
{"smiles": "[Cl][Al]([Cl])[Cl]", "note": "[AlCl3]", "values": [{"measurement": "Relative activity (residual TDH activity)", "setting": "[5]; 30° C. for 1 hour", "value": 118, "unit": "%"}]}
{"smiles": "[Ba+2].[Cl-].[Cl-]", "note": "[BaCl2]", "values": [{"measurement": "Relative activity (residual TDH activity)", "setting": "[5]; 30° C. for 1 hour", "value": 113, "unit": "%"}]}
{"smiles": "[Ca+2].[Cl-].[Cl-]", "note": "[CaCl2]", "values": [{"measurement": "Relative activity (residual TDH activity)", "setting": "[5]; 30° C. for 1 hour", "value": 109, "unit": "%"}]}
{"smiles": "[Cl][Cr]([Cl])[Cl]", "note": "[CrCl3]", "values": [{"measurement": "Relative activity (residual TDH activity)", "setting": "[5]; 30° C. for 1 hour", "value": 110, "unit": "%"}]}
{"smiles": "[Cl-].[Cs+]", "note": "[CsCl]", "values": [{"measurement": "Relative activity (residual TDH activity)", "setting": "[5]; 30° C. for 1 hour", "value": 117, "unit": "%"}]}
{"smiles": "[Cl][Cu][Cl]", "note": "[CuCl2]", "values": [{"measurement": "Relative activity (residual TDH activity)", "setting": "[5]; 30° C. for 1 hour", "value": 117, "unit": "%"}]}
{"smiles": "O=S(=O)([O-])[O-].[Cu+2]", "note": "[CuSO4]", "values": [{"measurement": "Relative activity (residual TDH activity)", "setting": "[5]; 30° C. for 1 hour", "value": 115, "unit": "%"}]}
{"smiles": "C[C@@H](O)[C@@H](N)C(=O)O", "note": "[D-allothreonine]", "values": [{"measurement": "Relative activity (%) CsTDH", "setting": "[4]; [7]", "value": 0, "unit": "%"}, {"measurement": "Relative activity (%) CyTDH", "setting": "[3]; [7]", "value": 0, "unit": "%"}, {"measurement": "Relative activity (%) CnTDH", "setting": "[1]; [6]", "value": 0, "unit": "%"}]}
{"smiles": "N[C@H](CO)C(=O)O", "note": "[D-serine]", "values": [{"measurement": "Relative activity (%) CnTDH", "setting": "[1]; [6]", "value": 0, "unit": "%"}]}
{"smiles": "CCOC(=O)OC(=O)OCC", "note": "[DEPC]", "values": [{"measurement": "Relative activity (%) (residual TDH activity)", "setting": "[5]; [8]", "value": 92, "unit": "%"}]}
{"smiles": "O[C@@H](CS)[C@@H](O)CS", "note": "[DTT]", "values": [{"measurement": "Inhibition of TDH activity (in words)", "setting": "[5]; [9]", "value": "Nor did the reducing agents β-mercaptoethanol and DTT inhibit enzymatic activity"}, {"measurement": "Relative activity (%) (residual TDH activity)", "setting": "[5]; [8]", "value": 125, "unit": "%"}]}
{"smiles": "O=C(O)CN(CCN(CC(=O)O)CC(=O)O)CC(=O)O", "note": "[EDTA]", "values": [{"measurement": "Inhibition of TDH activity (in words)", "setting": "[5]; [9]", "value": "not inhibited"}, {"measurement": "Relative activity (%) (residual TDH activity)", "setting": "[5]; [8]", "value": 103, "unit": "%"}]}
{"smiles": "O=C(O)CN(CCOCCOCCN(CC(=O)O)CC(=O)O)CC(=O)O", "note": "[EGTA]", "values": [{"measurement": "Inhibition of TDH activity (in words)", "setting": "[5]; [9]", "value": "not inhibited"}, {"measurement": "Relative activity (%) (residual TDH activity)", "setting": "[5]; [8]", "value": 94, "unit": "%"}]}
{"smiles": "[Cl][Fe][Cl]", "note": "[FeCl2]", "values": [{"measurement": "Relative activity (residual TDH activity)", "setting": "[5]; 30° C. for 1 hour", "value": 68, "unit": "%"}]}
{"smiles": "[Cl][Fe]([Cl])[Cl]", "note": "[FeCl3]", "values": [{"measurement": "Relative activity (residual TDH activity)", "setting": "[5]; 30° C. for 1 hour", "value": 27, "unit": "%"}]}
{"smiles": "OCC(O)CO", "note": "[Glycerol]", "values": [{"measurement": "Relative activity (%) PfTDH", "setting": "[2]; [7]", "value": 4, "unit": "%"}, {"measurement": "Relative activity (%) CnTDH", "setting": "[1]; [6]", "value": 0, "unit": "%"}]}
{"smiles": "NCC(=O)O", "note": "[Glycine]", "values": [{"measurement": "Relative activity (%) PfTDH", "setting": "[2]", "value": 0, "unit": "%"}, {"measurement": "Relative activity (%) CsTDH", "setting": "[4]; [7]", "value": 0, "unit": "%"}, {"measurement": "Relative activity (%) CyTDH", "setting": "[3]; [7]", "value": 0, "unit": "%"}, {"measurement": "Relative activity (%) CnTDH", "setting": "[1]; [6]", "value": 0, "unit": "%"}]}
{"smiles": "[Cl][Hg][Cl]", "note": "[HgCl2]", "values": [{"measurement": "Relative activity (%) (residual TDH activity)", "setting": "[5]", "value": 23, "unit": "%"}]}
{"smiles": "NC(=O)CI", "note": "[Iodoacetamide]", "values": [{"measurement": "Inhibition of TDH activity (in words)", "setting": "[5]; [9]", "value": "inhibited"}, {"measurement": "Relative activity (%) (residual TDH activity)", "setting": "[5]; [8]", "value": 0.8, "unit": "%"}]}
{"smiles": "O=C(O)CI", "note": "[Iodoacetic acid]", "values": [{"measurement": "Relative activity (%) (residual TDH activity)", "setting": "[5]", "value": 48, "unit": "%"}]}
{"smiles": "C[C@H](N)C(=O)O", "note": "[L-alanine]", "values": [{"measurement": "Relative activity (%) PfTDH", "setting": "[2]; [7]", "value": 0, "unit": "%"}, {"measurement": "Relative activity (%) CsTDH", "setting": "[4]; [7]", "value": 0, "unit": "%"}, {"measurement": "Relative activity (%) CyTDH", "setting": "[3]; [7]", "value": 0, "unit": "%"}, {"measurement": "Relative activity (%) CnTDH", "setting": "[1]; [6]", "value": 0, "unit": "%"}]}
{"smiles": "N=C(N)NCCC[C@H](N)C(=O)O", "note": "[L-arginine]", "values": [{"measurement": "Relative activity (%) PfTDH", "setting": "[2]", "value": 0, "unit": "%"}, {"measurement": "Relative activity (%) CsTDH", "setting": "[4]", "value": 0, "unit": "%"}, {"measurement": "Relative activity (%) CyTDH", "setting": "[3]", "value": 0, "unit": "%"}, {"measurement": "Relative activity (%) CnTDH", "setting": "[1]", "value": 0, "unit": "%"}]}
{"smiles": "NC(=O)C[C@H](N)C(=O)O", "note": "[L-asparagine]", "values": [{"measurement": "Relative activity (%) PfTDH", "setting": "[2]; [7]", "value": 0, "unit": "%"}, {"measurement": "Relative activity (%) CsTDH", "setting": "[4]; [7]", "value": 0, "unit": "%"}, {"measurement": "Relative activity (%) CyTDH", "setting": "[3]; [7]", "value": 0, "unit": "%"}, {"measurement": "Relative activity (%) CnTDH", "setting": "[1]; [6]", "value": 0, "unit": "%"}]}
{"smiles": "N[C@@H](CC(=O)O)C(=O)O", "note": "[L-aspartic acid]", "values": [{"measurement": "Relative activity (%) PfTDH", "setting": "[2]; [7]", "value": 0, "unit": "%"}, {"measurement": "Relative activity (%) CsTDH", "setting": "[4]; [7]", "value": 0, "unit": "%"}, {"measurement": "Relative activity (%) CyTDH", "setting": "[3]; [7]", "value": 0, "unit": "%"}, {"measurement": "Relative activity (%) CnTDH", "setting": "[1]; [6]", "value": 0, "unit": "%"}]}
{"smiles": "N[C@@H](CCC(=O)O)C(=O)O", "note": "[L-glutamic acid]", "values": [{"measurement": "Relative activity (%) PfTDH", "setting": "[2]; [7]", "value": 0, "unit": "%"}, {"measurement": "Relative activity (%) CsTDH", "setting": "[4]; [7]", "value": 0, "unit": "%"}, {"measurement": "Relative activity (%) CyTDH", "setting": "[3]; [7]", "value": 0, "unit": "%"}, {"measurement": "Relative activity (%) CnTDH", "setting": "[1]; [6]", "value": 0, "unit": "%"}]}
